Here are results for 23 compounds from US9777017B2, “Tricyclic fused thiophene derivatives as JAK inhibitors” (Incyte Corporation, priority 2012, dated 2017).

What all share (format): biochemical
Assay [1] concerns the target human JAK2 (Homo sapiens (Human), UniProt O60674). In words: In vitro JAK kinase assay (HTRF, phosphorylation of a biotinylated peptide), JAK2. Also on record: key to JAK2 IC50 (nM): +indicates an IC50 of ≦100 nM; ++indicates an IC50 of ≦1000 nM; +++indicates an IC50 of ≦2000 nM; ++++indicates an IC50 of >2000 nM; +++++indicates that the IC50 was greater than the highest concentration tested. The settings on record: 1 mM ATP. A digest of the protocol: (§1)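 Baculovirus-expressed catalytic domains (JAK1 a.a. 837-1142, JAK2 a.a. 828-1132) phosphorylate 500 nM biotinylated peptide at 1 mM ATP, Tris pH 7.8, 1 h at room temperature. EDTA stop and HTRF detection with Eu-Py20/SA-APC; IC50 values derived.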
On the technique in general: TR-FRET usually uses a lanthanide donor and a delayed reading to cut background.

The test system of assay [2] is human JAK1. Description: In vitro JAK kinase assay (HTRF, phosphorylation of a biotinylated peptide), JAK1. The settings on record: ratio of IC50s, 1 mM ATP. The gist of the method: as §1
For assay [3], the target named is human JAK1 (Homo sapiens, UniProt P23458). Described as above. The settings on record: 1 mM ATP. The gist of the method: as §1

The structures appear in SMILES notation. pIC50: −log10 of the molar value.

Sequence of human JAK2 (O60674 828-1132): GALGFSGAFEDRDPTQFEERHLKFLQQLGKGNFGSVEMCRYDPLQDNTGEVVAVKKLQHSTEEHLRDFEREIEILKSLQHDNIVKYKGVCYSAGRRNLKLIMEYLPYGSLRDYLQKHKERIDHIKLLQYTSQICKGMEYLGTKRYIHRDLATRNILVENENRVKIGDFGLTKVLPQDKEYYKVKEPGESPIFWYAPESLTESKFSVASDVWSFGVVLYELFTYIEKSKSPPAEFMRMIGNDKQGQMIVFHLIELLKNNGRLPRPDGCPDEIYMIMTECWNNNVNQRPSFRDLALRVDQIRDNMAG

One may read the pIC50 as the IC50 on a negative log10 scale, so that one unit is a factor of ten. For `C[C@@H](O)c1nc2cnc3ccsc3c2n1[C@H]1CCN(CCCCC#N)C1` [Example 66, 5-((3S)-3-{2-[(1R)-1-Hydroxyethyl]-1H-imidazo[4,5-d]thieno[3,2-b]pyridin-1-yl}pyrrolidin-1-yl)pentanenitrile], the “JAK2 IC50 (nM)” value in assay [1] was “+++++”. Further, in assay [2], the JAK2/JAK1 is over 10. Also, the pIC50 in assay [3] was at least 6.00.

Turning to `C[C@@H](O)c1nc2cnc3ccsc3c2n1[C@H]1CC[C@H](CC#N)[C@H](N)C1` [Example 67, ((1R,2R,4S)-2-Amino-4-{2-[(1R)-1-hydroxyethyl]-1H-imidazo[4,5-d]thieno[3,2-b]pyridin-1-yl}cyclohexyl)acetonitrile], the pIC50 was under 5.70 in assay [1] and at least 6.00 in assay [3]. The JAK2/JAK1 in assay [2] is reported as over 10.

Turning to `CC(N)c1nc2cnc3ccsc3c2n1[C@H]1CC[C@H](CC#N)OC1.O=C(O)C(F)(F)F` (stereo partly drawn) [Example 68, {(2R,5S)-5-[2-(1-Aminoethyl)-1H-imidazo[4,5-d]thieno[3,2-b]pyridin-1-yl]tetrahydro-2H-pyran-2-yl}acetonitrile trifluoroacetate], the pIC50 in assay [1] was at least 5.70; in assay [3] it was at least 7.00. For the same compound, the JAK2/JAK1 in assay [2] is given as over 10.

For the compound `CC(=O)NC(C)c1nc2cnc3ccsc3c2n1[C@H]1CC[C@H](CC#N)OC1` (stereo partly drawn) [Example 69, N-(1-{1-[(3S,6R)-6-(Cyanomethyl)tetrahydro-2H-pyran-3-yl]-1H-imidazo[4,5-d]thieno[3,2-b]pyridin-2-yl}ethyl)acetamide], the “JAK2 IC50 (nM)” value in assay [1] is given as “+++++”. The JAK2/JAK1 in assay [2] is given as over 10. This compound also had a pIC50 in assay [3] of at least 6.00.

Turning to `CNC(C)c1nc2cnc3ccsc3c2n1[C@H]1CC[C@H](CC#N)OC1` (stereo partly drawn) [Example 70, ((2R,5S)-5-{2-[1-(Methylamino)ethyl]-1H-imidazo[4,5-d]thieno[3,2-b]pyridin-1-yl}tetrahydro-2H-pyran-2-yl)acetonitrile], the figures for the pIC50 in assay [1] and in assay [3] were under 5.70 and at least 6.00, respectively. Besides, the JAK2/JAK1 in assay [2] was over 10.

With `CC(F)c1nc2cnc3ccsc3c2n1[C@H]1CC[C@H](CC#N)OC1` (stereo partly drawn) [Example 71, {(2R,5S)-5-[2-(1-Fluoroethyl)-1H-imidazo[4,5-d]thieno[3,2-b]pyridin-1-yl]tetrahydro-2H-pyran-2-yl}acetonitrile], the pIC50 was at least 6.00 in assay [1] and at least 7.00 in assay [3]. The JAK2/JAK1 in assay [2] was over 10.

In the case of `N#CCc1nc2cnc3ccsc3c2n1[C@H]1CC[C@H](CC#N)OC1` [Example 73, {(2R,5S)-5-[2-(Cyanomethyl)-1H-imidazo[4,5-d]thieno[3,2-b]pyridin-1-yl]tetrahydro-2H-pyran-2-yl}acetonitrile], the pIC50 in assay [1] was at least 6.00; in assay [3], at least 7.00. Further, in assay [2], the JAK2/JAK1 was over 10.

Turning to `N#CCc1nc2cnc3ccsc3c2n1[C@H]1CC[C@@H](CC#N)OC1` [Example 74, {(2S,5S)-5-[2-(Cyanomethyl)-1H-imidazo[4,5-d]thieno[3,2-b]pyridin-1-yl]tetrahydro-2H-pyran-2-yl}acetonitrile], the “JAK2 IC50 (nM)” value in assay [1] is on record as “+++++”. Moreover, in assay [2], the JAK2/JAK1 is listed as over 10. In addition, the pIC50 in assay [3] is at least 6.00.

With `C[C@@H](O)c1nc2cnc3ccsc3c2n1[C@H]1CC[C@H](CNS(C)(=O)=O)OC1` [Example 75, N-[((2R,5S)-5-{2-[(1R)-1-Hydroxyethyl]-1H-imidazo[4,5-d]thieno[3,2-b]pyridin-1-yl}tetrahydro-2H-pyran-2-yl)methyl]methanesulfonamide], the pIC50 in assay [1] was at least 5.70; in assay [3], at least 7.00. For the same compound, the JAK2/JAK1 in assay [2] is given as over 10.

Regarding `CC(C)OC(=O)NC[C@H]1CC[C@H](n2c([C@@H](C)O)nc3cnc4ccsc4c32)CO1` [Example 76, Isopropyl [((2R,5S)-5-{2-[(1R)-1-hydroxyethyl]-1H-imidazo[4,5-d]thieno[3,2-b]pyridin-1-yl}tetrahydro-2H-pyran-2-yl)methyl]carbamate], the pIC50 is at least 5.70 in assay [1] and at least 7.00 in assay [3]. In assay [2], the JAK2/JAK1 is over 10.

Regarding `COC(=O)NC[C@H]1CC[C@H](n2c([C@@H](C)O)nc3cnc4ccsc4c32)CC1` [Example 78, Methyl [(trans-4-{2-[(1R)-1-hydroxyethyl]-1H-imidazo[4,5-d]thieno[3,2-b]pyridin-1-yl}cyclohexyl)methyl]carbamate], the pIC50 was at least 6.00 in assay [1] and at least 7.00 in assay [3]. For the same compound, the JAK2/JAK1 in assay [2] is on record as over 10.

Take `CC(=O)NC[C@H]1CC[C@H](n2c([C@@H](C)O)nc3cnc4ccsc4c32)CC1` [Example 79, N-[(trans-4-{2-[(1R)-1-Hydroxyethyl]-1H-imidazo[4,5-b]thieno[3,2-b]pyridin-1-yl}cyclohexyl)methyl]acetamide]: the pIC50 was at least 5.70 in assay [1] and at least 7.00 in assay [3]. The JAK2/JAK1 in assay [2] was over 10.

With `C[C@@H](O)c1nc2cnc3ccsc3c2n1[C@H]1CC[C@H](CNS(C)(=O)=O)CC1` [Example 80, N-[(trans-4-{2-[(1R)-1-Hydroxyethyl]-1H-imidazo[4,5-d]thieno[3,2-b]pyridin-1-yl}cyclohexyl)methyl]methanesulfonamide], the pIC50 in assay [1] is at least 5.70; in assay [3] it was at least 7.00. In addition, the JAK2/JAK1 in assay [2] is on record as over 10.

With `C[C@@H](O)c1nc2cnc3ccsc3c2n1[C@H]1CC[C@H](CNC(=O)N(C)C)CC1` [Example 81, N′-[(trans-4-{2-[(1R)-1-Hydroxyethyl]-1H-imidazo[4,5-d]thieno[3,2-b]pyridin-1-yl}cyclohexyl)methyl]-N,N-dimethylurea], the pIC50 is under 5.70 in assay [1] and at least 7.00 in assay [3]. Also, in assay [2], the JAK2/JAK1 is on record as over 10.

Turning to `CCOC(=O)NC[C@H]1CC[C@H](n2c([C@@H](C)O)nc3cnc4ccsc4c32)CC1` [Example 82, Ethyl [(trans-4-{2-[(1R)-1-hydroxyethyl]-1H-imidazo[4,5-d]thieno[3,2-b]pyridin-1-yl}cyclohexyl)methyl]carbamate], the pIC50 in assay [1] was at least 6.00; in assay [3], at least 7.00. Besides, in assay [2], the JAK2/JAK1 was over 10.

In the case of `CCCOC(=O)NC[C@H]1CC[C@H](n2c([C@@H](C)O)nc3cnc4ccsc4c32)CC1` [Example 83, Propyl [(trans-4-{2-[(1R)-1-hydroxyethyl]-1H-imidazo[4,5-d]thieno[3,2-b]pyridin-1-yl}cyclohexyl)methyl]carbamate], the pIC50 in assay [1] is at least 6.00; in assay [3], at least 7.00. For the same compound, the JAK2/JAK1 in assay [2] is over 10.

Consider `CC(C)OC(=O)NC[C@H]1CC[C@H](n2c([C@@H](C)O)nc3cnc4ccsc4c32)CC1` [Example 84, Isopropyl [(trans-4-{2-[(1R)-1-hydroxyethyl]-1H-imidazo[4,5-d]thieno[3,2-b]pyridin-1-yl}cyclohexyl)methyl]carbamate], for which the figures for the pIC50 in assay [1] and in assay [3] were at least 6.00 and at least 7.00, respectively. For the same compound, the JAK2/JAK1 in assay [2] is over 10.

With `C[C@@H](O)c1nc2cnc3ccsc3c2n1[C@H]1CC[C@H](CNC(=O)OC2CCOC2)CC1` (stereo partly drawn) [Example 85, Tetrahydrofuran-3-yl [(trans-4-{2-[(1R)-1-hydroxyethyl]-1H-imidazo[4,5-d]thieno[3,2-b]pyridin-1-yl}cyclohexyl)methyl]carbamate], in assay [1], the “JAK2 IC50 (nM)” value was “+++++”. Besides, in assay [2], the JAK2/JAK1 is over 10. In assay [3], this compound showed a pIC50 of at least 7.00.

Consider `COC(=O)NC[C@H]1CC[C@H](n2c(CC#N)nc3cnc4ccsc4c32)CC1` [Example 86, Methyl ({trans-4-[2-(cyanomethyl)-1H-imidazo[4,5-d]thieno[3,2-b]pyridin-1-yl]cyclohexyl}methyl)carbamate], for which the pIC50 is at least 6.00 in assay [1] and at least 7.00 in assay [3]. Besides, the JAK2/JAK1 in assay [2] is over 10.

With `CCOC(=O)NC[C@H]1CC[C@H](n2c(CC#N)nc3cnc4ccsc4c32)CC1` [Example 87, Ethyl ({trans-4-[2-(cyanomethyl)-1H-imidazo[4,5-d]thieno[3,2-b]pyridin-1-yl]cyclohexyl}methyl)carbamate], the pIC50 in assay [1] was at least 6.00; in assay [3], at least 7.00. In addition, the JAK2/JAK1 in assay [2] is reported as over 10.

Consider `CC(C)OC(=O)NC[C@H]1CC[C@H](n2c(CC#N)nc3cnc4ccsc4c32)CC1` [Example 88, Isopropyl ({trans-4-[2-(cyanomethyl)-1H-imidazo[4,5-d]thieno[3,2-b]pyridin-1-yl]cyclohexyl}methyl)carbamate], for which, in assay [1], the “JAK2 IC50 (nM)” value is on record as “+++++”. Further, in assay [2], the JAK2/JAK1 was over 10. In assay [3], this compound had a pIC50 of at least 7.00.

Consider `CCC(=O)NC[C@H]1CC[C@H](n2c(CC#N)nc3cnc4ccsc4c32)CC1` [Example 89, N-({trans-4-[2-(Cyanomethyl)-1H-imidazo[4,5-d]thieno[3,2-b]pyridin-1-yl]cyclohexyl}methyl)propanamide], for which the pIC50 is under 5.70 in assay [1] and at least 7.00 in assay [3]. For the same compound, the JAK2/JAK1 in assay [2] is given as over 10.

In the case of `N#CCc1nc2cnc3ccsc3c2n1[C@H]1CC[C@H](CC#N)CC1` [Example 90, {1-[trans-4-(Cyanomethyl)cyclohexyl]-1H-imidazo[4,5-d]thieno[3,2-b]pyridin-2-yl}acetonitrile], the pIC50 in assay [1] is at least 6.00; in assay [3], at least 7.00. Also, in assay [2], the JAK2/JAK1 is recorded as over 10.
